“Also recorded” adds a separate entry of the source.
How the values were obtained:
[1] = tested on: Nalm-6; assay: huCART19 proliferation in co-culture with RAD001; format: cell-based, human; settings: 4 day co-culture with Nalm-6; 0.0032 and 0.016 nM RAD001
Excerpt: A humanized, anti-human CD19 CAR (huCART19) lentiviral transfer vector was used to produce the genomic material packaged into VSVg pseudotyped lentiviral particles. The amino acid and nucleotide sequence of the humanized anti-human CD19 CAR (huCART19) is CAR 1, ID 104875 described in PCT publication, WO2014/153270, filed Mar. 15, 2014, and is designated SEQ ID NOs. 85 and 31 therein.
Lentiviral transfer vector DNA is mixed with the three packaging components VSVg env, gag/pol and rev in combination with lipofectamine reagent to transfect Lenti-X 293T cells. Medium is changed after 24 h and 30 h thereafter, the virus-containing media is collected, filtered and stored at −80° C. CARTs are generated by transduction of fresh or frozen naïve T cells obtained by negative magnetic selection of healthy donor blood or leukopak. […] The percentage of cells transduced (expressing the CARs on the cell surface) and the level of CAR expression (relative fluorescence intensity, Geo Mean) are determined by flow cytometric analysis between days 7 and 9. […]
To evaluate the functionality of CARTs, the T cells are thawed and counted, and viability is assessed by Cellometer. […]
For measuring the proliferation of CARTs, T cells are cultured with target cells at a ratio of 1:1. […] The number of T cells is assessed by flow cytometry using counting beads as reference.

[2] = RAD001 pharmacokinetics in blood of tumor bearing mice; format: in vivo, NSG mice
Description: (§1) A concentrated micro-emulsion of 50 mg equal to 1 mg RAD001 was formulated and then resuspended in D5W (dextrose 5% in water) at the time of dosing. Mice were orally dosed daily (via oral gavage) with 200 μl of the desired doses of RAD001.
Mice were dosed daily with RAD001 starting 7 days post tumor implantation. Dosing groups were as follows: 0.3 mg/kg, 1 mg/kg, 3 mg/kg, and 10 mg/kg. Mice were bled on days 0 and 14 following the first and last dose of RAD001, at the following time points for PK analysis: 15 minutes, 30 minutes, 1 hour, 2 hours, 4 hours, 8 hours, 12 hours, and 24 hours.

[3] = in vivo proliferation of huCAR19 CAR T cells with RAD001; settings: NALM6-luc NSG mice, daily oral RAD001, lowest doses (0.003 mg/kg)
Description: (§2) NALM6-luc cells were grown and expanded in vitro in RPMI supplemented with 10% heat inactivated fetal bovine serum. The cells were then transferred to a 15 ml conical tube and washed twice with cold sterile PBS. NALM6-luc cells were then counted and resuspended at a concentration of 10×10^6 cells per milliliter of PBS. The cells were placed on ice and immediately (within one hour) implanted in the mice. NALM6-luc cells were injected intravenously via the tail vein in a 100 μl volume, for a total of 1×10^6 cells per mouse.
Mice were administered 5×10^6 CAR T cells 7 days after tumor implantation. Cells were partially thawed in a 37 degree Celsius water bath and then completely thawed by the addition of 1 ml of cold sterile PBS to the tube containing the cells. The thawed cells were transferred to a 15 ml falcon tube and adjusted to a final volume of 10 mls with PBS. The cells were washed twice at 1000 rpm for 10 minutes each time and then counted on a hemocytometer. T cells were then resuspended at a concentration of 50×10^6 CAR T cells per ml of cold PBS and kept on ice until the mice were dosed. […]
Based on these doses, huCAR19 CAR T cells were dosed with and without RAD001 to determine the proliferative ability of these cells. […] Mice were monitored via FACS for T cell expansion.

[4] = tested on: NALM6-luc tumors; assay: NALM6-luc tumor growth with daily RAD001 dosing; format: in vivo, NSG mice; settings: daily oral RAD001 alone, 0.3, 1, 3, 10 mg/kg
Description: The NALM6 human acute lymphoblastic leukemia (ALL) cell line was developed from the peripheral blood of a patient with relapsed ALL. The cells were then tagged with firefly luciferase. These suspension cells grow in RPMI supplemented with 10% heat inactivated fetal bovine serum.
6 week old NSG (NOD.Cg-Prkdc^scidIl2rg^tm1Wjl/SzJ) mice were received from the Jackson Laboratory (stock number 005557).
as §2, §1

[5] = tested on: primary AML blasts; assay: chemotherapy followed by CLL1-CART cells in primary AML xenografts; format: in vivo, NSG-S mice; settings: two weeks after cytarabine 60 mg/kg i.p. daily days 35-39
Description: NSG mice that are additionally transgenic for stem cell factor, GM-CSF and IL-3 (NSG-S) were injected with primary AML blasts (3×10^6 via tail vain injection, day 0). After 4-6 weeks, peripheral blood (PB) was collected to confirm engraftment, which was defined as the presence of >1% circulating leukemic cells (live human CD45dim cells). AML xenografts were then treated with cytarabine (Ara-C, 60 mg/kg by intra-peritoneal injection, daily between days 35-39). Peripheral blood counts were monitored and then these xenografts were randomized to receive CLL1 directed CART cells or control untransduced T cells (1×10^5 I.V.) on day 55. Following that, serial retro-orbital bleedings were performed and absolute leukemic blast count was calculated as a measure of disease burden and the xenografts were followed up for survival.

Structure (SMILES) | proliferation of huCART19 with RAD001 versus without [1] | concentration of RAD001 (blood) ([2]; 24 hours after the final dose) | concentration at 24 h ([2]; NSG, mouse, blood, oral, 24 hours after dosing, lowest dose 0.3 mg/kg, day 0 and day 14, read-out: RAD001 concentrations in the blood) | stability in the blood of tumor bearing mice ([2]; daily oral dosing, day 0 and day 14 PK) | proliferation of huCAR19 CAR T cells in vivo [3] | growth of NALM6-luc tumors [4] | mean fluorescence intensity (MFI) of CLL1 in leukemic cells (live huCD45dim) [5]
CO[C@H]1C[C@@H]2CC[C@@H](C)[C@@](O)(O2)C(=O)C(=O)N2CCCC[C@H]2C(=O)O[C@H]([C@H](C)C[C@@H]2CC[C@@H](OCCO)[C@H](OC)C2)CC(=O)[C@H](C)/C=C(\C)[C@@H](O)[C@@H](OC)C(=O)[C@H](C)C[C@H](C)/C=C/C=C/C=C/1C [RAD001, (1R,9S,12S,15R,16E,18R,19R,21R,23S,24E,26E,28E,30S,32S,35R)-1,18-dihydroxy-12-{(1R)-2-[(1S,3R,4R)-4-(2-hydroxyethoxy)-3-methoxycyclohexyl]-1-methylethyl}-19,30-dimethoxy-15,17,21,23,29,35-hexamethyl-11,36-dioxa-4-aza-tricyclo[30.3.1.04,9]hexatriaconta-16,24,26,28-tetraene-2,3,10,14,20-pentaone] | proliferation was higher than observed without the addition of RAD001 | above 10 nM | > 10 nM | fairly stable | enhanced proliferation; also recorded: enhancement in CAR T cell proliferation | did not have an impact | 
Nc1ccn([C@@H]2O[C@H](CO)[C@@H](O)[C@@H]2O)c(=O)n1 [cytarabine] |  |  |  |  |  |  | significant increase

From US10568947B2, “Treatment of cancer using a CLL-1 chimeric antigen receptor” (Novartis AG, priority 2014, dated 2020)
